Results published in US20160243254A1, “Theranostic Nanoprobes for Overcoming Cancer Multidrug Resistance and Methods” (Massachusetts Institute of Technology, priority 2015, published 2016).

Legend:
[1] = system: resistant MDA-MB-231 mammary fat pad tumors; test: Tumor growth in orthotopic triple-negative breast cancer mice model after hydrogel implantation; assay type: in vivo, SCID mice; conditions: day 14 post treatment
From the text: In order to evaluate the efficiency of the dark-gold nanobeacon probes in sensing and in overcoming MDR in vivo, an orthotopic breast cancer mice model was developed by injecting resistant MDA-MD-231 cells to the mammary fat pad of female SCID hairless congenic mice. Efficacious and local delivery of the dark-gold nanobeacon probes was achieved by the implantation of a hydrogel disk on top of the triple-negative breast tumors. The hydrogel scaffold comprising polyamidoamine (PAMAM G5) dendrimer cross-linked with dextran aldehyde provided enhanced stability of the embedded nanoparticles.
Tumors in the mammary fat pad were induced in female SCID hairless congenic mice by injection of 5×10^6 resistant MDA-MB-231 cells stably expressing firefly luciferase, suspended in 50 μL of HBBS (Lonza, GA, USA) solution. For determination of tumor growth, individual tumors were measured using caliper, and tumor volume was calculated by Tumor volume (mm^3)=width×(length^2)/2. Treatments began when tumor volume reached about 100 mm^3. […]
In vivo imaging was used to track simultaneously tumor inhibition as measured by luciferase expression, nanobeacon probes before and after hybridization to the target and hydrogel stability monitored by fluorescence emission over a period of 14 days following hydrogel implantation.

[2] = system: resistant MDA-MB-231 cells; test: MTT cell viability assay; assay type: cell-based; conditions: 5-FU resistant MDA-MB-231 cells compared to parental cells
Procedure: Briefly, a standard MTT [3-(4,5-dimethylthiazol-2-yl)-2,5-diphenyltetrazoliumbromide] reduction assay was performed to determine the resistance status of the cells and the cytotoxicity of the gold nanobeacons.
Cells were seeded at a density of 1×10^5 cells per well in 24-well culture plates in complete DMEM (500 μL) with serum. After 24 hours of exposure, the medium was removed and the cells were washed twice with sterile PBS and 300 μL of fresh medium with serum was added. Then 16.7 μL of sterile MTT stock solution (5 mg/mL in PBS) was added to each well.
After incubation for an additional 2 hours, the medium was removed and the formazan crystals were resuspended in 300 μL of dimethyl sulfoxide (Sigma-Aldrich, USA). The solution was mixed and its absorbance was measured at 540 nm as a working wavelength and 630 nm as reference using a microplate reader (Varioskan Flash Multimode Reader, Thermo Scientific, MA, USA). The cell viability was normalized to that of cells cultured in the culture medium with PBS treatment.
In order to corroborate confocal and flow cytometry data and overcome 5-FU resistance, resistant MDA-MB-231 cells were incubated with increasing amounts of dark-gold nanobeacons with and without 5-FU, and evaluated by the imaging system IVIS®.

O=c1[nH]cc(F)c(=O)[nH]1 [5-FU, 5-fluorouracil]
effect on tumor (in words) [1]: no effect
cell death after continuous exposure to drug [2]: absence of cell death
